Assays:
[1] = test system: PAI-1; assay: Western blot of PAI-1 in primary culture of human coronary artery smooth muscle cells; format: cell-based; conditions: 24 hr at 37° C.
[2] = test system: renin gene expression; conditions: in vitro and in vivo studies, recently found; cited from earlier work
[3] = test system: 24(OH)ase; assay: effect of drugs on the expression of 24(OH)ase; format: cell-based; conditions: compared with calcitriol
Protocol: Two observations may be noted in these studies: (1) 100% inhibition of growth was never achieved even at 1 μM of any of the test compound. Confocal microscopy studies confirm that, although these drugs are potent in inducing the translocation of VDR from cytoplasm to nucleus, not all cells respond to VDRAs even after 2 h of exposure, which may explain the <100% inhibition.

[4] = test system: CKD Stage 3 and 4 patients; assay: dipstick proteinuria in three randomized, double-blind, placebo-controlled studies in CKD Stage 3 and 4 patients with SHPT; format: in vivo, human
Protocol: Paricalcitol capsule, a synthetic 3rd generation vitamin D analog, and selective vitamin receptor activator (SVDRA) was evaluated in three randomized, double-blind, placebo-controlled, multicenter studies in CKD Stage 3 and 4 patients with SHPT. Two studies dosed three times a week(TIW), no more often than every other day, and 1 study was conducted with once a day dosing regimen (QD). Data from these three studies were combined and analyzed for the following safety parameters: • Calcium and phosphorus metabolism, kidney function parameters and adverse event profile • Changes in dipstick proteinuria Method: • Randomized, double-blind, placebo controlled, multicenter studies with a Pre-treatment/Washout Phase of 1-4 weeks and a Treatment Phase of 24 weeks • Patients were randomized 1:1 to paricalcitol or placebo • Major entry criteria: • Age≧18 years • CKD patients with eGFR (MDRD formula) 15-60 mL/min/1.73 m^2 • Average of the last 2 iPTH values≧150 pg/mL, all values≧120 pg/mL (iPTH measured by Nichols first generation intact PTH assay) • 2 consecutive serum calcium values between 8.0-10.0 mg/dL, and 2 consecutive serum phosphorus values≦5.2 mg/dL • Spot urinary calcium-to-creatinine ratio<0.2 • Not taking maintenance calcitonin, bisphosphonates or drugs that may affect calcium or bone metabolism. • Not taking glucocorticoids for >14 days within the last 6 months. Concurrent Phosphate Binder Usage
Initial Dose: 2 or 4 mcg for TIW regimen and 1 or 2 mcg for QD regimen
Dose Increment: 2 mcg for TIW regimen and 1 mcg for QD regimen
Dose increases every 4 weeks, dose decreases every 2 weeks or sooner
Changes in proteinuria, measured by automated semiquantitative dipstick testing, were evaluated in 195 CKD Stage 3 and 4 patients. Among them, 43.6% (41/94) of paricalcitol patients and 48.5% (49/101) of placebo patients were diabetic.

[5] = test system: renin gene promoter; assay: renin promoter-luciferase reporter assay; format: cell-based; conditions: FIG. 2
Text: (§1) Using an in vitro cell culture system, the activity of paricalcitol to suppress renin gene expression was examined using previously published techniques (1,25-Dihydroxyvitamin D3 is a negative endocrine regulator of the renin-angiotensin system, J. Clin. Invest., July 2002). […] This inhibitory effect is confirmed by renin promoter-luciferase reporter assays, which examine the activity of paricalcitol to suppress renin gene transcription.

[6] = test system: renin mRNA expression; assay: Northern blot analysis of renin mRNA expression in As4.1-hVDR cells; format: cell-based
Text: as §1

| patients who experienced an increase in proteinuria, baseline to final visit ([4]; patients who could have an increase in proteinuria from baseline (18/76), placebo 29% (23/77), p=0.466) [%] | suppression of the activity of the renin gene promoter compared with calcitriol [5] | Structure (SMILES) | potency in reducing the PAI-1 level [1] | renin gene expression [2] | potency on stimulating the expression of 24(OH)ase [3] | patients who had a decrease in proteinuria ([4]; patients on ACEI/ARB therapy with proteinuria at baseline (22/42), placebo 27% (11/41), p=0.025) [%] | patients who experienced a reduction in proteinuria, baseline to final visit ([4]; patients who had proteinuria at baseline (29/57), placebo 25% (15/61), p=0.004, 24 weeks treatment) [%] | PAI-1 level [1] | renin mRNA expression ([6]; FIG. 1) | renin-inhibiting activity compared with calcitriol ([6]; FIGS. 1A and B) |
| --- | --- | --- | --- | --- | --- | --- | --- | --- | --- | --- |
|  |  | C=C1/C(=C\C=C2/CCC[C@]3(C)[C@@H]([C@H](C)CCCC(C)(C)O)CC[C@@H]23)C[C@@H](O)C[C@@H]1O [calcitriol] | equally potent | able to inhibit renin gene expression |  |  |  |  |  |  |
| 24 | at least as potent as calcitriol | C[C@H](/C=C/[C@H](C)C(C)(C)O)[C@H]1CC[C@H]2/C(=C/C=C3C[C@@H](O)C[C@H](O)C3)CCC[C@]12C [paricalcitol] | equally potent |  | less potent than calcitriol | 52 | 51 | able to decrease PAI-1 level | dose-dependently inhibits renin mRNA expression | a bit more potent than calcitriol |
